# Data: patent US20040235813A1, “Compounds that inhibit hsp90 and stimulate hsp70 and hsp40, useful in the prevention or treatment of diseases associated with protein aggregation and amyloid formation” (priority 2001, published 2004)
# Key:
# Hsp40 = experiment: Immunoblot of Hsp40 expression in GA treated COS-1 cells expressing EGFP-HD72Q; type: cell-based; details: GA 360 nM, 40 hours
# Protocol: (§1) Equal amounts (10 μg) of protein were loaded. […] Aggregates were detected using the filter retardation assay.
# (§2) Control cells were treated with DMSO.
# (§3) Protein concentration was determined by the BioRad assay.
# Hsp70 = experiment: Immunoblot of Hsp70 expression in GA treated COS-1 cells expressing EGFP-HD72Q; type: cell-based; details: GA 360 nM, 40 hours
# Protocol: as §1, §2, §3
# EGFP-HD72Q = experiment: Immunoblot of EGFP-HD72Q expression in GA treated COS-1 cells; type: cell-based; details: GA 18-360 nM, 40 hours
# Protocol: (§4) (A) Expression of EGFP-HD72Q, Hsp40, Hsp70, and Hsp90 in COS-1 cells. […] Equal amounts (10 μg) of protein were loaded. […] Aggregates were detected using the filter retardation assay. Filters were probed with the HD1 antibody and signal intensities quantified using a Fuji-imager (LAS 2000). […] Values shown are the mean of three independent experiments (±S.E).
# (§5) A further linker was introduced in order to generate the appropriate reading frame, resulting in pTL1-HA3. Hsp70-pTLHA3 was generated by PCR amplification of the human Hsp70A gene and cloning into pTL1-HA3. Hdj-1-pTL10Flag was generated by ligating the human HDJ-1 gene, derived from pQE9-His-Hsp40 (33), into pTL10SFlag (a kind gift of D. Devys and J.-L. Mandel). pEGFP-HD72Q was generated by PCR amplification of the exon 1 of human HD from patient DNA and cloning into pEGFP-C1 (Clontech). All constructs were verified by sequencing.
# Control cells were treated with DMSO. […]
# SDS-PAGE and Western blot analysis was performed according to standard procedures. […] Captured aggregates were detected by incubation with HD1 IgG (diluted 1:5000) followed by incubation with alkaline phosphatase conjugated anti-rabbit IgG and the fluorescent substrate AttoPhos. Quantitation of the captured aggregates was performed using a Fuji-imager (LAS 2000) and AIDA 1.0 image analysis software.
# [1] = test system: SDS-insoluble EGFP-HD72Q protein aggregates; experiment: Filter retardation assay for SDS-insoluble EGFP-HD72Q protein aggregates in COS-1 cells; type: cell-based, monkey; details: filtration assay
# Protocol: as §4, §5
# Control cells were treated with DMSO. As alternative transfection method, the Lipofectamine Plus Reagent (GibcoBRL Life Technologies) was used according to the manufacturer's instruction.
# SDS-PAGE and Western blot analysis was performed according to standard procedures. For the filter retardation assay (27,30) protein samples (1-20 μg) were heated at 98° C. for 3 min in 2% SDS and 50 mM DTT and filtered through a 0.2 μm cellulose acetate membrane (Schleicher & Schuell) using a BRL dot-blot filtration unit. Captured aggregates were detected by incubation with HD1 IgG (diluted 1:5000) followed by incubation with alkaline phosphatase conjugated anti-rabbit IgG and the fluorescent substrate AttoPhos. Quantitation of the captured aggregates was performed using a Fuji-imager (LAS 2000) and AIDA 1.0 image analysis software.
# Using this assay SDS-resistant huntingtin protein aggregates can be immunologically detected and quantified.
smiles,measurement,setting,value
"COC1=C2C[C@@H](C)C[C@H](OC)[C@H](O)[C@@H](C)/C=C(\C)[C@H](OC(N)=O)[C@@H](OC)/C=C\C=C(/C)C(=O)NC(=CC1=O)C2=O [GA, Geldanamycin]",up-regulation of Hsp40 compared to the untreated controls,Hsp40,3-4 fold
same,up-regulation of Hsp70 compared to the untreated controls,Hsp70,3-4 fold
same,effect on EGFP-HD72Q expression,EGFP-HD72Q,no effect
same,reduction of the amount of insoluble protein aggregates,[1]; GA 18 nM,approximately 30%
same,reduction of the amount of insoluble protein aggregates,[1]; GA 90 nM,~60%
same,reduction of the amount of insoluble protein aggregates,[1]; GA 180 nM,~70%
same,reduction of the amount of insoluble protein aggregates,[1]; GA 360 nM,~80%
